Data on three molecules can be found in patent publication US20020004632A1 (priority 2000, published 2002).

The test system of test [1] is dendritic spines. The following applies: low levels; cited from earlier work.
Test [2] deals with dendritic spines. The following applies: low levels; cited from earlier work. This is another data set of the same source.
Test [3] relates to Rat hippocampal CA1 neurons. The experiment in a line: Spine morphology of transfected neurons in cultured hippocampal brain slices, 2PLSM imaging and automatic spine analysis algorithm. The following applies: biollistic cotransfection with GFP; compared to the GFP control; at least 5 neurons per group. The format is cell-based. The method, then: Cultured hippocampal brain slices were prepared from 7 day old rats. After five days in vitro a small subset of neurons were biollistically transfected (for example, Lo, et al., (1994). Neuronal transfection in brain slices using particle-mediated gene transfer, Neuron 13, 1263-1268, the contents of which are hereby incorporated by reference) with a plasmid carrying the gene for enhanced green fluorescent protein (GFP) (commercially available from Clonetech) At least two days after transfection, slices were transferred to a perfusion chamber for imaging. Labeled neurons were identified and imaged using a custom-made 2PLSM laser scanning microscope (as described in Mainen, Z. F., Maletic-Savatic, M., Shi, S. H., Hayashi, Y., Malinow, R., and Svoboda, K. (1999), Two-photon imaging in living brain slices, Methods 18, 231-239, the contents of which are hereby incorporated by reference). The light source was a Ti:sapphire laser running at a wavelength of ≈990 nm (repetition frequency 80 MHz; pulse length 150 fs). The average power delivered to the backfocal plane of the objective (40x, NA 0.8) varied depending on the imaging depth (range 30 to 150 mW). Fluorescence was detected in whole-field detection mode with a photomultiplier tube.
mTOR kinase controls the phosphorylation of the translation regulators p70^56k and 4E-BP1. […]

As for `Cc1onc(O)c1CC(N)C(=O)O` (stereo not drawn) [AMPA, alpha-amino-3-hydroxy-5-methyl-4-isoxalone], the lesion-induced spine degeneration entry with dendritic spines [1] is listed as “block”. In addition, in the test on dendritic spines [2], the actin-based spine motility result is “abolished”.
Regarding `N[C@@H](CCC(=O)O)C(=O)O` [glutamate], in the test on dendritic spines [2], the actin-based spine motility result is on record as “abolished”.
“mTOR wt: wild-type mTOR kinase expressed from a plasmid transfected by biollistic gene transfer”: the spine density result in test [3] is on record as “increased”.
